Publication PMC10436550, “Subacute toxicity evaluations of LPM3480392 in rats, a full µ-opioid receptor biased agonist” (Frontiers in Pharmacology, 2023)
Read-outs that look alike come from different tables or passages of the source.

Experiment: Toxicokinetics, plasma LPM3480392 after intravenous administration
Type: in vivo, Sprague Dawley (SD) rats
Settings: for concentration at 2 min / AUC(0-t): Sprague-Dawley, rat, plasma; for concentration at 2 min: intravenous; for AUC(0-t): iv
Procedure: Blood samples from animals in LPM3480392 groups were collected at predose and 2 min, 30 min, 1 h and 4 h postdose of the 1st dosing on Days 1 and 28; at 2 min and 4 h postdose of the 2nd dosing on Days 1 and 28; at 2 min, 1 h and 4 h postdose the 3rd dosing on Days 1 and 28. Animals in control group were sampled at predose and 2 min postdose of the 1st dosing on Days 1 and 28. Approximately 0.36 mL of blood was collected from the jugular vein of surviving TK animals at each time point. Whole blood samples were anticoagulated with EDTA-K2 and centrifuged at 2°C–8°C and 1800 × g for 10 min. The harvested plasma was stored below −66°C before the analysis. LC-MS/MS methods (liquid chromatograph/mass spectrometer) were used to detect concentrations of LPM3480392 at each time point. TK parameters (AUC, Cmax, Tmax) were calculated by Phoenix WinNonlin (Pharsight) 8.2. The detection instruments include ultra-performance liquid chromatography (Waters, United States ACQUITY UPLC I -CLASS) and triple quadrupole tandem mass spectrometer (Waters, United States, Xevo TQ-S).

## Fc1ccc([C@]2(CCNCc3cccc(Cl)c3)CCO[C@]3(CCOC3)C2)nc1 [LPM3480392]
0.6–2.4 mg/kg/day
  Accumulation after 28-day repeated dosing: No accumulation
  Gender difference of mean AUC0–12h in plasma: no apparent gender difference
Both sexes, 0.6 mg/kg/day, 0.6 mg/kg/day iv, 1st dosing day, F + M, read-out: C2min (The 1st dosing)
  concentration at 2 min: 0.0883 ± 0.0188 µg/mL
Both sexes, 0.6 mg/kg/day, 0.6 mg/kg/day iv, 1st dosing day, F + M, read-out: C2min (The 2nd dosing)
  concentration at 2 min: 0.0684 ± 0.0128 µg/mL
Both sexes, 0.6 mg/kg/day, 0.6 mg/kg/day iv, 1st dosing day, F + M, read-out: C2min (The 3rd dosing)
  concentration at 2 min: 0.0601 ± 0.0104 µg/mL
Both sexes, 0.6 mg/kg/day, 0.6 mg/kg/day iv, 28th dosing day, F + M, read-out: C2min (The 1st dosing)
  concentration at 2 min: 0.0872 ± 0.0147 µg/mL
Both sexes, 0.6 mg/kg/day, 0.6 mg/kg/day iv, 28th dosing day, F + M, read-out: C2min (The 2nd dosing)
  concentration at 2 min: 0.0754 ± 0.0102 µg/mL
Both sexes, 0.6 mg/kg/day, 0.6 mg/kg/day iv, 28th dosing day, F + M, read-out: C2min (The 3rd dosing)
  concentration at 2 min: 0.0739 ± 0.0109 µg/mL
Both sexes, 1.2 mg/kg/day, 1.2 mg/kg/day iv, 1st dosing day, F + M, read-out: C2min (The 1st dosing)
  concentration at 2 min: 0.175 ± 0.0186 µg/mL
Both sexes, 1.2 mg/kg/day, 1.2 mg/kg/day iv, 1st dosing day, F + M, read-out: C2min (The 2nd dosing)
  concentration at 2 min: 0.155 ± 0.0294 µg/mL
Both sexes, 1.2 mg/kg/day, 1.2 mg/kg/day iv, 1st dosing day, F + M, read-out: C2min (The 3rd dosing)
  concentration at 2 min: 0.148 ± 0.027 µg/mL
Both sexes, 1.2 mg/kg/day, 1.2 mg/kg/day iv, 28th dosing day, F + M, read-out: C2min (The 1st dosing)
  concentration at 2 min: 0.179 ± 0.0232 µg/mL
Both sexes, 1.2 mg/kg/day, 1.2 mg/kg/day iv, 28th dosing day, F + M, read-out: C2min (The 2nd dosing)
  concentration at 2 min: 0.14 ± 0.031 µg/mL
Both sexes, 1.2 mg/kg/day, 1.2 mg/kg/day iv, 28th dosing day, F + M, read-out: C2min (The 3rd dosing)
  concentration at 2 min: 0.149 ± 0.0246 µg/mL
Both sexes, 2.4 mg/kg/day, 2.4 mg/kg/day iv, 1st dosing day, F + M, read-out: C2min (The 1st dosing)
  concentration at 2 min: 0.33 ± 0.0276 µg/mL
Both sexes, 2.4 mg/kg/day, 2.4 mg/kg/day iv, 1st dosing day, F + M, read-out: C2min (The 2nd dosing)
  concentration at 2 min: 0.29 ± 0.0231 µg/mL
Both sexes, 2.4 mg/kg/day, 2.4 mg/kg/day iv, 1st dosing day, F + M, read-out: C2min (The 3rd dosing)
  concentration at 2 min: 0.229 ± 0.0436 µg/mL
Both sexes, 2.4 mg/kg/day, 2.4 mg/kg/day iv, 28th dosing day, F + M, read-out: C2min (The 1st dosing)
  concentration at 2 min: 0.351 ± 0.0617 µg/mL
Both sexes, 2.4 mg/kg/day, 2.4 mg/kg/day iv, 28th dosing day, F + M, read-out: C2min (The 2nd dosing)
  concentration at 2 min: 0.323 ± 0.0892 µg/mL
Both sexes, 2.4 mg/kg/day, 2.4 mg/kg/day iv, 28th dosing day, F + M, read-out: C2min (The 3rd dosing)
  concentration at 2 min: 0.32 ± 0.0342 µg/mL
Both sexes, 0.6 mg/kg/day, 0.6 mg/kg/day iv, 1st dosing day, F + M, read-out: AUC0–12h
  AUC(0-t): 0.315 ± 0.0437 µg·h/mL
Both sexes, 0.6 mg/kg/day, 0.6 mg/kg/day iv, 28th dosing day, F + M, read-out: AUC0–12h
  AUC(0-t): 0.349 ± 0.0382 µg·h/mL
Both sexes, 0.6 mg/kg/day, female + male, 0.6 mg/kg/day, Day 1, read-out: Mean AUC0–12h
  AUC(0-t): 0.315 µg·h/mL
Both sexes, 0.6 mg/kg/day, female + male, 0.6 mg/kg/day, Day 28, read-out: Mean AUC0–12h
  AUC(0-t): 0.349 µg·h/mL
Both sexes, 1.2 mg/kg/day, 1.2 mg/kg/day iv, 1st dosing day, F + M, read-out: AUC0–12h
  AUC(0-t): 0.663 ± 0.114 µg·h/mL
Both sexes, 1.2 mg/kg/day, 1.2 mg/kg/day iv, 28th dosing day, F + M, read-out: AUC0–12h
  AUC(0-t): 0.68 ± 0.0745 µg·h/mL
Both sexes, 1.2 mg/kg/day, female + male, 1.2 mg/kg/day, Day 1, read-out: Mean AUC0–12h
  AUC(0-t): 0.663 µg·h/mL
Both sexes, 1.2 mg/kg/day, female + male, 1.2 mg/kg/day, Day 28, read-out: Mean AUC0–12h
  AUC(0-t): 0.68 µg·h/mL
Both sexes, 2.4 mg/kg/day, 2.4 mg/kg/day iv, 1st dosing day, F + M, read-out: AUC0–12h
  AUC(0-t): 1.25 ± 0.0936 µg·h/mL
Both sexes, 2.4 mg/kg/day, 2.4 mg/kg/day iv, 28th dosing day, F + M, read-out: AUC0–12h
  AUC(0-t): 1.49 ± 0.169 µg·h/mL
Both sexes, 2.4 mg/kg/day, female + male, 2.4 mg/kg/day, Day 1, read-out: Mean AUC0–12h
  AUC(0-t): 1.25 µg·h/mL
Both sexes, 2.4 mg/kg/day, female + male, 2.4 mg/kg/day, Day 28, read-out: Mean AUC0–12h
  AUC(0-t): 1.49 µg·h/mL
Female + male, 1.2 mg/kg/day
  Mean AUC0–12h ratio, Day 28 and Day 1: 1.0
Female + male, 2.4 mg/kg/day
  Mean AUC0–12h ratio, Day 28 and Day 1: 1.2
female, 0.6 mg/kg/day, 0.6 mg/kg/day iv, 1st dosing day, F, read-out: C2min (The 1st dosing)
  concentration at 2 min: 0.0784 ± 0.0109 µg/mL
female, 0.6 mg/kg/day, 0.6 mg/kg/day iv, 1st dosing day, F, read-out: C2min (The 2nd dosing)
  concentration at 2 min: 0.0662 ± 0.0124 µg/mL
female, 0.6 mg/kg/day, 0.6 mg/kg/day iv, 1st dosing day, F, read-out: C2min (The 3rd dosing)
  concentration at 2 min: 0.0555 ± 0.00894 µg/mL
female, 0.6 mg/kg/day, 0.6 mg/kg/day iv, 28th dosing day, F, read-out: C2min (The 1st dosing)
  concentration at 2 min: 0.0901 ± 0.0088 µg/mL
female, 0.6 mg/kg/day, 0.6 mg/kg/day iv, 28th dosing day, F, read-out: C2min (The 2nd dosing)
  concentration at 2 min: 0.073 ± 0.0126 µg/mL
female, 0.6 mg/kg/day, 0.6 mg/kg/day iv, 28th dosing day, F, read-out: C2min (The 3rd dosing)
  concentration at 2 min: 0.0685 ± 0.0118 µg/mL
female, 1.2 mg/kg/day, 1.2 mg/kg/day iv, 1st dosing day, F, read-out: C2min (The 1st dosing)
  concentration at 2 min: 0.181 ± 0.0248 µg/mL
female, 1.2 mg/kg/day, 1.2 mg/kg/day iv, 1st dosing day, F, read-out: C2min (The 2nd dosing)
  concentration at 2 min: 0.169 ± 0.0262 µg/mL
female, 1.2 mg/kg/day, 1.2 mg/kg/day iv, 1st dosing day, F, read-out: C2min (The 3rd dosing)
  concentration at 2 min: 0.157 ± 0.0255 µg/mL
female, 1.2 mg/kg/day, 1.2 mg/kg/day iv, 28th dosing day, F, read-out: C2min (The 1st dosing)
  concentration at 2 min: 0.187 ± 0.02 µg/mL
female, 1.2 mg/kg/day, 1.2 mg/kg/day iv, 28th dosing day, F, read-out: C2min (The 2nd dosing)
  concentration at 2 min: 0.167 ± 0.0141 µg/mL
female, 1.2 mg/kg/day, 1.2 mg/kg/day iv, 28th dosing day, F, read-out: C2min (The 3rd dosing)
  concentration at 2 min: 0.166 ± 0.0161 µg/mL
female, 2.4 mg/kg/day, 2.4 mg/kg/day iv, 1st dosing day, F, read-out: C2min (The 1st dosing)
  concentration at 2 min: 0.331 ± 0.0251 µg/mL
